Measurements as given in patent publication US12102706B2, “Peptide composition and respective uses” (Universidade do Minho, priority 2013, dated 2024).
Several values for one entry are separate records, joined by “and”; a condition that tells them apart may be missing. Identical values can stand only once.

Tests used:
keratin = assay: Binding of Alexa Fluor 647-marked keratin to peptides attached to glass, microarray scanner intensity (Example 4); set-up: species or system human; settings: peptide 15 fmol/mm2 on glass; keratin 1 μg/mL, 2 hours at 37° C.; three replicas
Protocol: In order to assess the interactions between the keratin and some peptides, a keratin solution was prepared. This procedure was performed by immersing African hair, acquired from the International Hair Importers and Products, Inc. (New York), in a solution containing 8 M urea, 0.2 M sodium dodecyl sulfate and 0.5 M sodium bisulfate. The mixture was heated to 50° C. for 24 h in a shaker bath. The solution was dialyzed for several days against double-distilled water. The keratin solution was then concentrated using AMICON with a 3 kDa cut-off.
The reaction was incubated for 1 h30 min at room temperature and in the dark.
The keratin was then diluted to 1 μg/mL in blocking buffer (3% BSA in tris-buffered saline (TBS) with 0.05% Tween 20).
After incubation, the glasses were rinsed in successive washing solutions: TBS+0.1% Tween 20 and blocking buffer with 3% BSA in TBS+0.1% Tween 20, for 3 minutes in each solution.
The imaging of the glasses was performed in Agilent G2565CA Microarray Scanner System. Three replicas of the each peptide incubation were performed and analyzed.

[1] = Mechanical tests (Young modulus, maximum load, stretching) of relaxed (reduced) human hair after peptide treatment (Example 3)
Protocol: The formulation was tested in different hair types: • virgin hair washed, with the cuticle intact and absence of chemical damages; • hair after reduction treatment, at 37° C. in phosphate buffer at pH=8, with 3M GndHCl and 0.05M DTT for 2 hours.
For the treatment with the peptide SEQ ID NO: 412, concentrations of 0.01% (w/w) were used.

[2] = Mechanical resistance test (Young modulus) of bleached human hair after direct application of peptide (Example 2); settings: peptide treatment after bleaching
Protocol: The hair was supplied from International Hair Importers and Products, Inc. (New York). Hair fibers were pre-treated by bleaching. The formulation was tested in different hair types: • virgin hair washed, with the cuticle intact and absence of chemical damages; • hair after 8 bleaching treatments, at 50° C. in 0.1 M Na2CO3/NaHCO3 buffer, at pH=9, 10% H2O2, for 1 hour.
The incorporation of the peptides was performed by direct application in the hair surface. The mechanical resistance tests were performed after the treatment of the hair with the peptide.
The measurements of mechanical resistance were performed using a cell with 2.5 N maximum load and a deformation rate of 1.5 mm/min. Each hair was individually mounted in the tensile jig by means of a paper template with a fixed gauge length of 20 mm.

[3] = Mechanical test (Young modulus) of bleached human hair treated with serum or mask, with and without peptide (Example 1); settings: formulations containing the peptide vs without peptide
Protocol: The tests were performed with in human hair after 8 treatments of bleaching, at 50° C. in 0.1 M Na2CO3/NaHCO3 buffer, at pH=9, 10% H2O2, for 1 hour.
Each of the formulations was tested with and without the peptide sequence ID NO:5, which contains in the sequence 15% of cysteine.
The hair mask was applied to the hair after 8 bleaching treatments, being left to act for 15 minutes, mimicking the procedure indicated in commercial masks. Posteriorly, the hair was washed. The serum was applied to the hair after 8 bleaching treatments, being left to act for 1 hour at 37° C. Posteriorly, the hair was not washed, as in typical commercial procedures the serum should be applied in dry hair. The hair was also tested after 5 applications.
After the treatment, mechanical tests were performed, using a cell with 2.5 N maximum load and a deformation rate of 1.5 mm/min. Each hair was individually mounted in the tensile jig by means of a paper template with a fixed gauge length of 20 mm.

Sequence	Intensity level (average ± standard deviation), normalized (keratin)	further results
ASCVSLLCRP (listed as Homo sapiens) [SEQ.ID NO:179]	0.990±0.014	
CEPAICEPSC (listed as Homo sapiens) [SEQ.ID NO:432]	1 and 1.000 ± 0.000	
CGPSPPCITT (listed as Homo sapiens) [SEQ.ID NO:412]		hair stretching (average) ([1]; relaxed hair after peptide treatment): 72%; maximum load test, maximum of resistance ([1]; relaxed hair fiber after peptide treatment): 126 MPa; Young modulus (average) ([1]; relaxed hair fiber after peptide treatment at 0.01%): 4190 MPa
CISSSCCPSCC (listed as Homo sapiens) [SEQ.ID NO:1108]	1 and 1.000 ± 0.000	
CLPCLPAASC (listed as Homo sapiens) [SEQ.ID NO:75]	1 and 1.000 ± 0.000	
CQCSCCKPYCS (listed as Homo sapiens) [SEQ.ID NO:1131]	1 and 1.000 ± 0.000	
GGVCGPSPPC (listed as Homo sapiens) [SEQ.ID NO:409]		Young modulus [2]: 5649±1022 MPa
GVCGPSPPCI (listed as Homo sapiens) [SEQ.ID NO:5]		mechanical resistance of the damaged hair [3]: increase in mechanical resistance
SCCAPVYCCK (listed as Homo sapiens) [SEQ.ID NO:951]	1 and 1.000 ± 0.000	
